Measurements reported in ChEMBL document CHEMBL5303766, “Data for DCP probe FHT-2344” (2022).

How the values were obtained:
[1] = biological target: Glycogen synthase kinase-3 beta (Homo sapiens) (UniProt P49841); assay: GSK3B SGC Tm panel (DSF); details: for ΔTm: Compound concentration 10.0 uM
[2] = biological target: Serine/threonine-protein kinase 38-like (Homo sapiens) (UniProt Q9Y2H1); assay: STK38L SGC Tm panel (DSF); details: for ΔTm: Compound concentration 10.0 uM
[3] = biological target: T1, Phosphorylase b kinase gamma catalytic chain, liver/testis isoform (Homo sapiens) (UniProt P15735); assay: PHKG2 SGC Tm panel (DSF); details: for ΔTm: Compound concentration 10.0 uM
T1 sequence (whole entry): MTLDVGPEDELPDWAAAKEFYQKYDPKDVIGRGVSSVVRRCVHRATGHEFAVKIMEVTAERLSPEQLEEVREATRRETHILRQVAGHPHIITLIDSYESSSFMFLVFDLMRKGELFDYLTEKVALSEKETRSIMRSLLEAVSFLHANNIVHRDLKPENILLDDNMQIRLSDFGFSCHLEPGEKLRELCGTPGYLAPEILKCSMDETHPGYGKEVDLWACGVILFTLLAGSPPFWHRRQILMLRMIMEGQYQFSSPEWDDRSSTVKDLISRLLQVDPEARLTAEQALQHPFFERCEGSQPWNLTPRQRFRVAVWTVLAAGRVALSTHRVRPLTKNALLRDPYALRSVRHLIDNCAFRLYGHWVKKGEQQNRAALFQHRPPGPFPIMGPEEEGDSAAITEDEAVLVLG

[4] = biological target: Muscarinic acetylcholine receptor M5 (Homo sapiens) (UniProt P08912); details: Compound concentration 10.0 uM
[5] = biological target: Sodium-dependent noradrenaline transporter (Homo sapiens, UniProt P23975); details: Compound concentration 10.0 uM
[6] = biological target: Death-associated protein kinase 3 (Homo sapiens) (UniProt O43293); assay: DAPK3 SGC Tm panel (DSF); details: for ΔTm: Compound concentration 10.0 uM
[7] = biological target: T2, Serine/threonine-protein kinase ULK1 (Homo sapiens) (UniProt O75385); assay: ULK1 SGC Tm panel (DSF); details: for ΔTm: Compound concentration 10.0 uM
T2 sequence (whole entry): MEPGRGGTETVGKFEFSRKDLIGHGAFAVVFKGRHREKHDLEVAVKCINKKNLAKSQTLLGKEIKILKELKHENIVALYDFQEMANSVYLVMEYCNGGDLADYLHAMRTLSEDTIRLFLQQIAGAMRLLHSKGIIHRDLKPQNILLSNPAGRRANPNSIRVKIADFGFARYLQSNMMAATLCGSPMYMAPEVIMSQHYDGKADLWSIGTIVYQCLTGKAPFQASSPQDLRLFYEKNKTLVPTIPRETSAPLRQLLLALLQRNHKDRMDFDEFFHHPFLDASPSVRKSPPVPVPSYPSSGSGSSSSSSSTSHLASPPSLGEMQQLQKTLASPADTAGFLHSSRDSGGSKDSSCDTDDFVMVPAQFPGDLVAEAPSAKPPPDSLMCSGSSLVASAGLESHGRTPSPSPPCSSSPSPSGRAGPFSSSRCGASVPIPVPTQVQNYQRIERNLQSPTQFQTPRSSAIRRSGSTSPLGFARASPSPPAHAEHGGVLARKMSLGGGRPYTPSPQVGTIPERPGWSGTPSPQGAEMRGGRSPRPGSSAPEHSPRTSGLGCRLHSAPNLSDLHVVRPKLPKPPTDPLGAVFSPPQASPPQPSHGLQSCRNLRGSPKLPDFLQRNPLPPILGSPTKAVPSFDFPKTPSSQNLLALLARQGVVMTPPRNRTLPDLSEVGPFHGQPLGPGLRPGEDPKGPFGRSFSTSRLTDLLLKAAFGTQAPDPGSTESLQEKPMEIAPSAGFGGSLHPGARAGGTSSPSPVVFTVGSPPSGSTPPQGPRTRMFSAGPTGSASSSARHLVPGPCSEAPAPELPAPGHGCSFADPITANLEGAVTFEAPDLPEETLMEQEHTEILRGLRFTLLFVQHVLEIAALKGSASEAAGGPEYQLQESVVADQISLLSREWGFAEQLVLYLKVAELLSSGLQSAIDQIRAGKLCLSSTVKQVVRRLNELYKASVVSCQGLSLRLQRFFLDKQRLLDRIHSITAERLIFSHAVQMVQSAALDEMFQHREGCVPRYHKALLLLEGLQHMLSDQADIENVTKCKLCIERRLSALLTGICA

[8] = biological target: Sodium-dependent serotonin transporter (Homo sapiens) (UniProt P31645); details: Compound concentration 10.0 uM
[9] = biological target: Histamine H2 receptor (Homo sapiens) (UniProt P25021); details: Compound concentration 10.0 uM
[10] = biological target: Alpha-2C adrenergic receptor (Homo sapiens) (UniProt P18825); details: Compound concentration 10.0 uM
[11] = biological target: 5-hydroxytryptamine receptor 3A (Homo sapiens) (UniProt P46098); details: Compound concentration 10.0 uM
[12] = biological target: Beta-1 adrenergic receptor (Homo sapiens) (UniProt P08588); details: Compound concentration 10.0 uM
[13] = biological target: Aurora kinase B (Homo sapiens) (UniProt Q96GD4); assay: AURKB SGC Tm panel (DSF); details: for ΔTm: Compound concentration 10.0 uM
[14] = biological target: Membrane-associated tyrosine- and threonine-specific cdc2-inhibitory kinase (Homo sapiens) (UniProt Q99640); assay: PKMYT1 SGC Tm panel (DSF); details: Compound concentration 10.0 uM
[15] = biological target: Tyrosine-protein kinase Fes/Fps (Homo sapiens) (UniProt P07332); assay: FES SGC Tm panel (DSF); details: for ΔTm: Compound concentration 10.0 uM
[16] = biological target: Serine/threonine-protein kinase OSR1 (Homo sapiens) (UniProt O95747); assay: OXSR1 SGC Tm panel (DSF); details: for ΔTm: Compound concentration 10.0 uM
[17] = biological target: T3, Serine/threonine-protein kinase 4 (Homo sapiens) (UniProt Q13043); assay: STK4 SGC Tm panel (DSF); details: for ΔTm: Compound concentration 10.0 uM
T3 sequence (whole entry): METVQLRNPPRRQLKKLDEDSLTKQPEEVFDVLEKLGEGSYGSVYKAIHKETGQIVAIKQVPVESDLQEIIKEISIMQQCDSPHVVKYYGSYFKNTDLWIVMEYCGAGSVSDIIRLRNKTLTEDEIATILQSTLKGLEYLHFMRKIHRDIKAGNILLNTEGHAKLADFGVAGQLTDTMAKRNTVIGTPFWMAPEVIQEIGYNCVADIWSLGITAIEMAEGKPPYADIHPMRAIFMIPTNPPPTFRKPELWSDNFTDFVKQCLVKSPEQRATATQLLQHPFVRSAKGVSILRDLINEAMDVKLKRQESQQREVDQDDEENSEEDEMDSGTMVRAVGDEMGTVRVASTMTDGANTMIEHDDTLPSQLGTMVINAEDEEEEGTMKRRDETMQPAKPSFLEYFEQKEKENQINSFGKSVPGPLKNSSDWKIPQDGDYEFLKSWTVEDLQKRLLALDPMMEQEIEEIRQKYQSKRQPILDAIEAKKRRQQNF

Sequence of Aurora kinase B (Homo sapiens) (Q96GD4 whole entry): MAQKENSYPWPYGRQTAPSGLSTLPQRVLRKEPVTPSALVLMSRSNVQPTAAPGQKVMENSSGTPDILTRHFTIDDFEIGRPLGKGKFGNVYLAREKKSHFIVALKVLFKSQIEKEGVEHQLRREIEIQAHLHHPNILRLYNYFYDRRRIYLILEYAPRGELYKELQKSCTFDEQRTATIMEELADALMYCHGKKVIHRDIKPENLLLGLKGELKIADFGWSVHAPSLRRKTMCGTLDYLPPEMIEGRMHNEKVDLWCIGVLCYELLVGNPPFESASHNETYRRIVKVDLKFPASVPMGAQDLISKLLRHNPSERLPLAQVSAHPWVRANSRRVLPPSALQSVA
Sequence of Death-associated protein kinase 3 (Homo sapiens) (O43293 whole entry, looked up): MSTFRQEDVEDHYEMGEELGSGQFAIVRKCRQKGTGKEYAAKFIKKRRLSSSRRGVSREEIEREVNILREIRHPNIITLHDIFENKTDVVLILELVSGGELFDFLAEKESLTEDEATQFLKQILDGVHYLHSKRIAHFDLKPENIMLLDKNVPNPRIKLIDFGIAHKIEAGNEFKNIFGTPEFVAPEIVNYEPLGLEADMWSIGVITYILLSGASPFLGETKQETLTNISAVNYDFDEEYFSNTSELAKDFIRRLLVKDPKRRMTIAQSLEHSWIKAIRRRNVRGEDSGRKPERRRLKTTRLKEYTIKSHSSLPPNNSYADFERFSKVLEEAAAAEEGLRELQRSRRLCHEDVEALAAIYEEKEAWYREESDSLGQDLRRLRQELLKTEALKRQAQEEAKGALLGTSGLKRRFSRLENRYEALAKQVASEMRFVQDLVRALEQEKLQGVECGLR
Sequence of Tyrosine-protein kinase Fes/Fps (Homo sapiens) (P07332 whole entry): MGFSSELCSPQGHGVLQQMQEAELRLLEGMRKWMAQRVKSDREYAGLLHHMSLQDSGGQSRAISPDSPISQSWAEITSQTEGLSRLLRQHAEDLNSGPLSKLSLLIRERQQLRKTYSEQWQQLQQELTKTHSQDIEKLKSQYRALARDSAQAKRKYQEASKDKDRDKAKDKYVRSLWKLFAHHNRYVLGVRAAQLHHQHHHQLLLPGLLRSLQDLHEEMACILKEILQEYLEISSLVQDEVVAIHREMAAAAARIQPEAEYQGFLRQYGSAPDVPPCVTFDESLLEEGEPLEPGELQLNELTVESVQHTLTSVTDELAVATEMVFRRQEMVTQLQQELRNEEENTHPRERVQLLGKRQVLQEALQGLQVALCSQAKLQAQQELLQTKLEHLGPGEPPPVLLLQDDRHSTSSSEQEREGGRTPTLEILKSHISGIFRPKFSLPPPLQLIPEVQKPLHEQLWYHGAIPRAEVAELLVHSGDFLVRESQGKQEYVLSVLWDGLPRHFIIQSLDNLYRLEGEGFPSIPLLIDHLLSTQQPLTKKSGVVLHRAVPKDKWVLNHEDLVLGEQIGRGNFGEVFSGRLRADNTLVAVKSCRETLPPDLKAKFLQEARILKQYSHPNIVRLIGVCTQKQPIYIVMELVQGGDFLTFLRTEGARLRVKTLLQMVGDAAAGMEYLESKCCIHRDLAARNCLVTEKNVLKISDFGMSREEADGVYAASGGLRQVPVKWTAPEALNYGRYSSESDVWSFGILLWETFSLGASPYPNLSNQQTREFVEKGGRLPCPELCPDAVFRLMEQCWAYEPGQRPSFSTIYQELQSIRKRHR
Sequence of Serine/threonine-protein kinase OSR1 (Homo sapiens) (O95747 2-527 limits assumed): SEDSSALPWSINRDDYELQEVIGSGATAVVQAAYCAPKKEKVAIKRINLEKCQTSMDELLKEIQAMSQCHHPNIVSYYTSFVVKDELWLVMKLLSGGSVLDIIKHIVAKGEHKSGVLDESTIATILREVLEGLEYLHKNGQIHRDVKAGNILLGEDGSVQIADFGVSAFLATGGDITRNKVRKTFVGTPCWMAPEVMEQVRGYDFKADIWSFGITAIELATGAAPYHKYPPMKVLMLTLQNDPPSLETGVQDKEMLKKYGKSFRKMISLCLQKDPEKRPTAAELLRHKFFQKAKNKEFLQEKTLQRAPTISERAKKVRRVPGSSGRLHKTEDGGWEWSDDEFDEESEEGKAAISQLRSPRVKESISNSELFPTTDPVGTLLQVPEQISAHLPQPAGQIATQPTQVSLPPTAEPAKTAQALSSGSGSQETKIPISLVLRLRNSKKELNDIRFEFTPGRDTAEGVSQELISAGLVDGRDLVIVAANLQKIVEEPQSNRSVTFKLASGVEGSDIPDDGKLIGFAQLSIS
Sequence of Serine/threonine-protein kinase 38-like (Homo sapiens) (Q9Y2H1 2-464 limits assumed): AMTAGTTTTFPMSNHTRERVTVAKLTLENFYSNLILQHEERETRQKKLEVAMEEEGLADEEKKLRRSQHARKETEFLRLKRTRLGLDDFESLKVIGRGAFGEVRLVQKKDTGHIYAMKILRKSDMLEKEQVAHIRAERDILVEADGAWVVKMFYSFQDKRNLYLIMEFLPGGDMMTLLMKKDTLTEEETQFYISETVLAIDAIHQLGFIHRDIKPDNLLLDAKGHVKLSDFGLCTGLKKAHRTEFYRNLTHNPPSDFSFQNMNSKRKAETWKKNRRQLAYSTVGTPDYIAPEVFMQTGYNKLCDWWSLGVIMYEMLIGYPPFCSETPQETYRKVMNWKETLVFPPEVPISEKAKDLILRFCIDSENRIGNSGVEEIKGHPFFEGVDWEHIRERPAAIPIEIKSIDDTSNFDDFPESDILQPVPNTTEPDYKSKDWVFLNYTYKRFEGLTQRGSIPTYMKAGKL
Sequence of Glycogen synthase kinase-3 beta (Homo sapiens) (P49841 whole entry, looked up): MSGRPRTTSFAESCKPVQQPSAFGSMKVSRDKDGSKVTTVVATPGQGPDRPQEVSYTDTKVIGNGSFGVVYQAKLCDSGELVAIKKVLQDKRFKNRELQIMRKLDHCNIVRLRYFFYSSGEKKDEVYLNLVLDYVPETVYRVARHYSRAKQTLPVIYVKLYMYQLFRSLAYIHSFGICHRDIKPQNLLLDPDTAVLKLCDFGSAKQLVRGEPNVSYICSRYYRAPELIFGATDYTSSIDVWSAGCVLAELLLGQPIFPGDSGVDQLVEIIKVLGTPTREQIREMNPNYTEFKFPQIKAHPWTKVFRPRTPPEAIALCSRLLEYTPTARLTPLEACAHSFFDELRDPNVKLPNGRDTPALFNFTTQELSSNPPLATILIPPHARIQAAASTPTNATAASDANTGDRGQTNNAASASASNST
Sequence of Sodium-dependent noradrenaline transporter (P23975 whole entry): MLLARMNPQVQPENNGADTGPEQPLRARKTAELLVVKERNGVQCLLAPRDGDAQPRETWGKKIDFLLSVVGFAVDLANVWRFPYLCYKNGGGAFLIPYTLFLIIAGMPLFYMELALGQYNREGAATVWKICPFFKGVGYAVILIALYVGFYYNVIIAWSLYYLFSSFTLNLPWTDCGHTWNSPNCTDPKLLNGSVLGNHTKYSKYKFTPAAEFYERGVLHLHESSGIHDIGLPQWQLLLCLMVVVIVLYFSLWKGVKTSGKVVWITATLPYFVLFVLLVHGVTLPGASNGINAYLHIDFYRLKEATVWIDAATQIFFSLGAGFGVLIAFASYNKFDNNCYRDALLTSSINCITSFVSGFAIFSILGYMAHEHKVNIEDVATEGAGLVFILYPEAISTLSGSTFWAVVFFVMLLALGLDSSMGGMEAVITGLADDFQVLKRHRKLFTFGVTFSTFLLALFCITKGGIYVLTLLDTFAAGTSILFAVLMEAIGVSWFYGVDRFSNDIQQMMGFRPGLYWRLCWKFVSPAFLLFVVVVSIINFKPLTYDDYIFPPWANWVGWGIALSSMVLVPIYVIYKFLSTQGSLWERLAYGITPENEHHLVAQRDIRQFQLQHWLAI
Sequence of 5-hydroxytryptamine receptor 3A (Homo sapiens) (P46098 whole entry): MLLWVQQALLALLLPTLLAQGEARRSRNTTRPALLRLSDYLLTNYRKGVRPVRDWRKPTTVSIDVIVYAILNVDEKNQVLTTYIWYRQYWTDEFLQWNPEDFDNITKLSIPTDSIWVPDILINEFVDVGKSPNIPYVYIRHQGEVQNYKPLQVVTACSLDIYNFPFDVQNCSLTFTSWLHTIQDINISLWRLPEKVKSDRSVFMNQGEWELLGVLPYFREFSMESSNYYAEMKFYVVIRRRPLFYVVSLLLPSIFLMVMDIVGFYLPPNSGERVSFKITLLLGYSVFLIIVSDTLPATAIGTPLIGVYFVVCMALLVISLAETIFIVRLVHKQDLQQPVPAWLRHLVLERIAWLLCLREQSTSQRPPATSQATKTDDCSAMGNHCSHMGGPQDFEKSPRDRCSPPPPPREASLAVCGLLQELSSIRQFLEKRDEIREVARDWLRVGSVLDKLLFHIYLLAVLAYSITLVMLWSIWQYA
Sequence of Beta-1 adrenergic receptor (Homo sapiens) (P08588 whole entry, looked up): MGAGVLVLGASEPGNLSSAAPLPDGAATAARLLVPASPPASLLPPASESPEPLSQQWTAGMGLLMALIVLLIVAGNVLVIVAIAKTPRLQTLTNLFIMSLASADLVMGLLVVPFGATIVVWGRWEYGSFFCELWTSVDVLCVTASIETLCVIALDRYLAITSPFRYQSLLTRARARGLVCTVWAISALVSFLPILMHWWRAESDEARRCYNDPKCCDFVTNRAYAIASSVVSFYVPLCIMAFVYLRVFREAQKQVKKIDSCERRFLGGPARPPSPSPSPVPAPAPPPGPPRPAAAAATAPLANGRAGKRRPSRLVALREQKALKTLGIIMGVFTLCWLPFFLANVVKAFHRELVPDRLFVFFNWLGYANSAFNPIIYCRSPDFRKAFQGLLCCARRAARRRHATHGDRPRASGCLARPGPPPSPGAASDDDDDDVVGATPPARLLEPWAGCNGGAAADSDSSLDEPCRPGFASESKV
Sequence of Histamine H2 receptor (Homo sapiens) (P25021 whole entry): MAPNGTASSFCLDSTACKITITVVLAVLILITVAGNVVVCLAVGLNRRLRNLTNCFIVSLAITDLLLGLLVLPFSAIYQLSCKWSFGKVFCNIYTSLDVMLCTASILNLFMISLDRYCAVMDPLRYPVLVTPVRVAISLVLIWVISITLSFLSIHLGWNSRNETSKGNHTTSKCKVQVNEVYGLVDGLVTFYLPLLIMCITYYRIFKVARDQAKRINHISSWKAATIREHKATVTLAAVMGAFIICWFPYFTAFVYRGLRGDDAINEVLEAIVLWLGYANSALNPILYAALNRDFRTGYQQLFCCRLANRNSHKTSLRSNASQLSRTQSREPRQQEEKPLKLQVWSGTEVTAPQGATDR

Structure (SMILES) | delta Tm Staurosporine positive control [1] | ΔTm [1] | delta Tm Staurosporine positive control [2] | ΔTm [2] | delta Tm Staurosporine positive control [3] | ΔTm [3] | inhibition [4] [%] | inhibition [5] [%] | delta Tm Staurosporine positive control [6] | ΔTm [6] | delta Tm Staurosporine positive control [7] | ΔTm [7] | inhibition [8] [%] | inhibition [9] [%] | inhibition [10] [%] | inhibition [11] [%] | inhibition [12] [%] | delta Tm Staurosporine positive control [13] | ΔTm [13] | ΔTm [14] | also measured
COC[C@H](NC(=O)c1ccn(S(C)(=O)=O)c1)C(=O)Nc1nc(-c2cccc(-c3ccn(C)n3)c2)cs1 | 12.1 | 0.242 | 10.8 | 0.451 | 22.2 | 0.157 | 0.52 | 45.5 | 16.2 | -1.53 | 13.4 | 0.528 | 27.5 | 22.6 | 10.2 | 5.62 | 1.4 | 13.6 | 1.29 | -0.638 | delta Tm Staurosporine positive control [15]: 8.7; ΔTm [15]: 0.123; delta Tm Staurosporine positive control [16]: 5.06; ΔTm [16]: -0.0355; delta Tm Staurosporine positive control [17]: 14.2; ΔTm [17]: 0
C[C@H](NC(=O)c1cn(C2(C#N)CC2)cn1)C(=O)Nc1nc(-c2cccc(-c3ccn(C)n3)c2)cs1 | 12.1 | 0.703 | 10.8 | 0.237 | 22.2 | 0.17 | 4.67 | 69.8 | 16.2 | -1.05 | 13.4 | 0.0519 | 17.3 | 4.24 | 11.2 | 3.44 | 3.85 | 13.6 | 0.802 | -0.216 | delta Tm Staurosporine positive control [15]: 8.7; ΔTm [15]: 0.0445; delta Tm Staurosporine positive control [16]: 5.06; ΔTm [16]: 1.31; delta Tm Staurosporine positive control [17]: 14.2; ΔTm [17]: 0
